Laboratory results taken from patent US9738634B2, “Heterocyclic amide compound and herbicide” (SYNGENTA PARTICIPATIONS AG, priority 2013, dated 2017).

Tests used:
Type in all cases: in vivo
[1] = system: corn; experiment: Test Example 3: soil treatment, effect on crop; c: corn; details: treatment dosage 315 g/ha
Method in brief: (§1)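 Crop and weed responses were judged three weeks after a uniform surface spray of the water-diluted emulsion at the given g/ha rate. Seeds sat beneath about 1.5 cm of sterilized diluvial soil, and boxes stood in a greenhouse at 25 to 30° C.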

[2] = system: birds-eye speedwell; experiment: Test Example 3: weedkilling efficacy through soil treatment; p: birds-eye speedwell; details: treatment dosage 315 g/ha
Method in brief: as §1

[3] = system: black-grass; experiment: Test Example 4: weedkilling efficacy by foliar treatment; H: black-grass; details: treatment dosage 315 g/ha
Method in brief: (§2)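 Seeds are spot-sown into sterilized diluvial soil and covered with about 1.5 cm of soil. After 14 days' greenhouse growth at 25 to 30° C, plants are sprayed on stems and leaves with diluted emulsion at the stated g/ha rate, then scored at 3 weeks.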

[4] = system: oval-leafed pondweed; experiment: Test Example 1: weedkilling efficacy, preemergent weed treatment in the submerged state; C: oval-leafed pondweed; details: treatment dosage 252 g/ha
Method in brief: (§3)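 Emulsion diluted with water to the specified per-hectare dosage is applied onto flood water (4 cm) over alluvial soil on the sowing day, with barnyard grass, bulrush and pondweed seeded and rice (2.5-leaf) transplanted; plants grow at 25–30 °C and are rated at 3 weeks.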

[5] = system: green foxtail; experiment: Test Example 4: weedkilling efficacy by foliar treatment; E: green foxtail; details: treatment dosage 315 g/ha
Method in brief: as §2

[6] = system: wild oat; experiment: Test Example 4: weedkilling efficacy by foliar treatment; G: wild oat; details: treatment dosage 315 g/ha
Method in brief: as §2

[7] = system: barnyard grass; experiment: Test Example 2: weedkilling efficacy, growth period weed treatment in the submerged state; A: barnyard grass; details: treatment dosage 252 g/ha
Method in brief: (§4)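 First, alluvial soil in pots is flooded to 4 cm and mixed seed is sown. Next, plants grow in a greenhouse at 25 to 30° C until the 1-2 leaf stage. Then diluted emulsion is applied onto the water surface at the given g/ha rate, and injury is assessed after 3 weeks.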

[8] = system: black-grass; experiment: Test Example 3: weedkilling efficacy through soil treatment; H: black-grass; details: treatment dosage 315 g/ha
Method in brief: as §1

[9] = system: soybean; experiment: Test Example 4: foliar treatment, effect on crop; d: soybean; details: treatment dosage 315 g/ha
Method in brief: as §2

[10] = system: redroot pigweed; experiment: Test Example 4: weedkilling efficacy by foliar treatment; L: redroot pigweed; details: treatment dosage 315 g/ha
Method in brief: as §2

[11] = system: wheat; experiment: Test Example 4: foliar treatment, effect on crop; e: wheat; details: treatment dosage 315 g/ha
Method in brief: as §2

[12] = system: catchweed; experiment: Test Example 3: weedkilling efficacy through soil treatment; O: catchweed; details: treatment dosage 315 g/ha
Method in brief: as §1

[13] = system: oval-leafed pondweed; experiment: Test Example 2: weedkilling efficacy, growth period weed treatment in the submerged state; C: oval-leafed pondweed; details: treatment dosage 252 g/ha
Method in brief: as §4

[14] = system: directly sown rice; experiment: Test Example 3: soil treatment, effect on crop; b: directly sown rice; details: treatment dosage 315 g/ha
Method in brief: as §1

[15] = system: chickweed; experiment: Test Example 4: weedkilling efficacy by foliar treatment; N: chickweed; details: treatment dosage 315 g/ha
Method in brief: as §2

[16] = system: fig-leafed goosefoot; experiment: Test Example 4: weedkilling efficacy by foliar treatment; M: fig-leafed goosefoot; details: treatment dosage 315 g/ha
Method in brief: as §2

[17] = system: wheat; experiment: Test Example 3: soil treatment, effect on crop; e: wheat; details: treatment dosage 315 g/ha
Method in brief: as §1

[18] = system: soybean; experiment: Test Example 3: soil treatment, effect on crop; d: soybean; details: treatment dosage 315 g/ha
Method in brief: as §1

[19] = system: Italian ryegrass; experiment: Test Example 4: weedkilling efficacy by foliar treatment; I: Italian ryegrass; details: treatment dosage 315 g/ha
Method in brief: as §2

[20] = system: beet; experiment: Test Example 3: soil treatment, effect on crop; f: beet; details: treatment dosage 315 g/ha
Method in brief: as §1

[21] = system: directly sown rice; experiment: Test Example 4: foliar treatment, effect on crop; b: directly sown rice; details: treatment dosage 315 g/ha
Method in brief: as §2

[22] = system: birds-eye speedwell; experiment: Test Example 4: weedkilling efficacy by foliar treatment; p: birds-eye speedwell; details: treatment dosage 315 g/ha
Method in brief: as §2

[23] = system: Italian ryegrass; experiment: Test Example 3: weedkilling efficacy through soil treatment; I: Italian ryegrass; details: treatment dosage 315 g/ha
Method in brief: as §1

[24] = system: crabgrass; experiment: Test Example 4: weedkilling efficacy by foliar treatment; D: crabgrass; details: treatment dosage 315 g/ha
Method in brief: as §2

[25] = system: green foxtail; experiment: Test Example 3: weedkilling efficacy through soil treatment; E: green foxtail; details: treatment dosage 315 g/ha
Method in brief: as §1

[26] = system: catchweed; experiment: Test Example 4: weedkilling efficacy by foliar treatment; O: catchweed; details: treatment dosage 315 g/ha
Method in brief: as §2

[27] = system: Indian mallow; experiment: Test Example 3: weedkilling efficacy through soil treatment; K: Indian mallow; details: treatment dosage 315 g/ha
Method in brief: as §1

[28] = system: corn; experiment: Test Example 4: foliar treatment, effect on crop; c: corn; details: treatment dosage 315 g/ha
Method in brief: as §2

[29] = system: beet; experiment: Test Example 4: foliar treatment, effect on crop; f: beet; details: treatment dosage 315 g/ha
Method in brief: as §2

[30] = system: crabgrass; experiment: Test Example 3: weedkilling efficacy through soil treatment; D: crabgrass; details: treatment dosage 315 g/ha
Method in brief: as §1

[31] = system: wild oat; experiment: Test Example 3: weedkilling efficacy through soil treatment; G: wild oat; details: treatment dosage 315 g/ha
Method in brief: as §1

[32] = system: bulrush; experiment: Test Example 1: weedkilling efficacy, preemergent weed treatment in the submerged state; B: bulrush; details: treatment dosage 252 g/ha
Method in brief: as §3

[33] = system: barnyard grass; experiment: Test Example 1: weedkilling efficacy, preemergent weed treatment in the submerged state; A: barnyard grass; details: treatment dosage 252 g/ha
Method in brief: as §3

[34] = system: chickweed; experiment: Test Example 3: weedkilling efficacy through soil treatment; N: chickweed; details: treatment dosage 315 g/ha
Method in brief: as §1

[35] = system: transplanted rice; experiment: Test Example 1: preemergent weed treatment in the submerged state, effect on crop; a: transplanted rice; details: treatment dosage 252 g/ha
Method in brief: as §3

[36] = system: redroot pigweed; experiment: Test Example 3: weedkilling efficacy through soil treatment; L: redroot pigweed; details: treatment dosage 315 g/ha
Method in brief: as §1

[37] = system: Indian mallow; experiment: Test Example 4: weedkilling efficacy by foliar treatment; K: Indian mallow; details: treatment dosage 315 g/ha
Method in brief: as §2

[38] = system: bulrush; experiment: Test Example 2: weedkilling efficacy, growth period weed treatment in the submerged state; B: bulrush; details: treatment dosage 252 g/ha
Method in brief: as §4

[39] = system: fig-leafed goosefoot; experiment: Test Example 3: weedkilling efficacy through soil treatment; M: fig-leafed goosefoot; details: treatment dosage 315 g/ha
Method in brief: as §1

CC1=C(c2cccnc2F)C(=O)N(C(C)(C)C(=O)Nc2cc(Cl)ccn2)CO1 [B-2-07]
c (corn) effect on crop grade [1]: 3 (weed kill ratio 40% or more, less than 70%)
P (birds-eye speedwell) weedkilling efficacy grade [2]: 5 (weed kill ratio 90% or more, (practically complete withering))
H (black-grass) weedkilling efficacy grade [3]: 4 (weed kill ratio 70% or more, less than 90%)
C (oval-leafed pondweed) weedkilling efficacy grade [4]: 5 (weed kill ratio 90% or more, (practically complete withering))
E (green foxtail) weedkilling efficacy grade [5]: 4 (weed kill ratio 70% or more, less than 90%)
G (wild oat) weedkilling efficacy grade [6]: 3 (weed kill ratio 40% or more, less than 70%)
A (barnyard grass) weedkilling efficacy grade [7]: 3 (weed kill ratio 40% or more, less than 70%)
H (black-grass) weedkilling efficacy grade [8]: 5 (weed kill ratio 90% or more, (practically complete withering))
d (soybean) effect on crop grade [9]: 3 (weed kill ratio 40% or more, less than 70%)
L (redroot pigweed) weedkilling efficacy grade [10]: 2 (weed kill ratio 20% or more, less than 40%)
e (wheat) effect on crop grade [11]: 0 (weed kill ratio 5% or less (practically no effect))
O (catchweed) weedkilling efficacy grade [12]: 3 (weed kill ratio 40% or more, less than 70%)
C (oval-leafed pondweed) weedkilling efficacy grade [13]: 2 (weed kill ratio 20% or more, less than 40%)
b (directly sown rice) effect on crop grade [14]: 4 (weed kill ratio 70% or more, less than 90%)
N (chickweed) weedkilling efficacy grade [15]: 2 (weed kill ratio 20% or more, less than 40%)
M (fig-leafed goosefoot) weedkilling efficacy grade [16]: 3 (weed kill ratio 40% or more, less than 70%)
e (wheat) effect on crop grade [17]: 0 (weed kill ratio 5% or less (practically no effect))
d (soybean) effect on crop grade [18]: 1 (weed kill ratio 5% or more, less than 20%)
I (Italian ryegrass) weedkilling efficacy grade [19]: 5 (weed kill ratio 90% or more, (practically complete withering))
f (beet) effect on crop grade [20]: 1 (weed kill ratio 5% or more, less than 20%)
b (directly sown rice) effect on crop grade [21]: 4 (weed kill ratio 70% or more, less than 90%)
P (birds-eye speedwell) weedkilling efficacy grade [22]: 3 (weed kill ratio 40% or more, less than 70%)
I (Italian ryegrass) weedkilling efficacy grade [23]: 5 (weed kill ratio 90% or more, (practically complete withering))
D (crabgrass) weedkilling efficacy grade [24]: 5 (weed kill ratio 90% or more, (practically complete withering))
E (green foxtail) weedkilling efficacy grade [25]: 5 (weed kill ratio 90% or more, (practically complete withering))
O (catchweed) weedkilling efficacy grade [26]: 2 (weed kill ratio 20% or more, less than 40%)
K (Indian mallow) weedkilling efficacy grade [27]: 2 (weed kill ratio 20% or more, less than 40%)
c (corn) effect on crop grade [28]: 1 (weed kill ratio 5% or more, less than 20%)
f (beet) effect on crop grade [29]: 3 (weed kill ratio 40% or more, less than 70%)
D (crabgrass) weedkilling efficacy grade [30]: 5 (weed kill ratio 90% or more, (practically complete withering))
G (wild oat) weedkilling efficacy grade [31]: 3 (weed kill ratio 40% or more, less than 70%)
B (bulrush) weedkilling efficacy grade [32]: 5 (weed kill ratio 90% or more, (practically complete withering))
A (barnyard grass) weedkilling efficacy grade [33]: 5 (weed kill ratio 90% or more, (practically complete withering))
N (chickweed) weedkilling efficacy grade [34]: 3 (weed kill ratio 40% or more, less than 70%)
a (transplanted rice) effect on crop grade [35]: 0 (weed kill ratio 5% or less (practically no effect))
L (redroot pigweed) weedkilling efficacy grade [36]: 3 (weed kill ratio 40% or more, less than 70%)
K (Indian mallow) weedkilling efficacy grade [37]: 1 (weed kill ratio 5% or more, less than 20%)
B (bulrush) weedkilling efficacy grade [38]: 5 (weed kill ratio 90% or more, (practically complete withering))
M (fig-leafed goosefoot) weedkilling efficacy grade [39]: 3 (weed kill ratio 40% or more, less than 70%)
